The text below walks through data of US20260200928A1, “THERAPEUTIC COMPOUNDS” (Sanofi, priority 2022, published 2026).

The target of this assay is T1, human IL-17A (Homo sapiens, UniProt Q16552).
T1 construct: purchased R&D Systems 7955-IL/CF
T1 sequence (Q16552 24-155): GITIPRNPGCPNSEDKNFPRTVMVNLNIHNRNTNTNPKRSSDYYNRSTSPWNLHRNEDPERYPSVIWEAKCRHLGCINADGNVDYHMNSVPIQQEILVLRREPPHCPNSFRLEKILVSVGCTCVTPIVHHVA
As to the kind of experiment: IL-17A AlphaLISA competition assay (block of IL-17A binding to its receptor IL-17RA). As to conditions: mean IC50 (n≥2), block of IL-17A binding to IL-17RA. The procedure:
The ability of the compounds to block binding of IL-17A to its receptor, IL-17RA, was analysed in a competition assay using AlphaLISA technology (Perkin Elmer). The assay is a bead based AlphaLISA where the IL-17RA is captured on the acceptor bead via an Fc tag and IL-17A is captured on the streptavidin donor bead via a biotinylated anti-IL17A antibody.
Assay buffer was prepared by adding 0.05% Tween-20 (v/v) and 0.1% BSA to Phosphate Buffered Saline (PBS). The assay was carried out in 384-well white low volume plates (Perkin Elmer #6008359). 10 μL of a 7.5 nM stock of human recombinant IL-17A (R&D Systems 7955-IL/CF) diluted in assay buffer was dispensed into the assay plate and compounds or DMSO vehicle control were added in a volume of 75 nL using an acoustic dispenser (Beckman). The compounds were pre-incubated with the IL-17A for 30 min at room temperature prior to addition of 5 μL of a 5 nM stock of human recombinant IL-17RA/Fc chimera (R&D Systems 177-IR-100) diluted in assay buffer. The IL-17A was incubated with the receptor for a further 90 minutes at room temperature before addition of 5 μL of a mixture of anti-human Fc IgG acceptor beads (75 μg/mL, Perkin Elmer AL1030) and anti-IL-17A biotin conjugated antibody (5 nM, Abcam, #ab155575) in assay buffer. After a further 30 min incubation at room temperature, 5 μL of streptavidin donor beads (75 μg/mL, Perkin Elmer 6760002S) were added and the plate was incubated for 3 h in the dark.
The AlphaLisa signal was measured using the PheraSTAR plate reader (BMG). Data were analysed using GeneData Screener and fitted to a 4-parameter logistic equation. The IC50 values were calculated using the DMSO vehicle as the negative control and a high concentration (4 μM) of a reference IL-17A inhibitor as the positive control. All compounds were analysed at least in duplicate (n≥2).
A general note: In Alpha technology, singlet oxygen from a donor bead excites a nearby acceptor bead.
`CCc1nocc1C(=O)N[C@H](C(=O)Nc1cc(C(NC(=O)CCC(F)(F)F)C2CC2)ccn1)C(C1CC1)C1CC1` (single isomer, unassigned) [Example 44] showed an IC50 of 151 nM.

`CN1C[C@H]2[C@@H]([C@H]1C(=O)N[C@H](C(=O)Nc1cc(C(NC(=O)CCC(F)(F)F)C3CC3)ccn1)C(C1CC1)C1CC1)C2(C)C` (single isomer, unassigned) [Example 56] came in with a concentration for half-maximal inhibition (IC50) of 7420 nM. Regarding `COCC(c1ccnc(NC(=O)[C@@H](NC(=O)c2nonc2C2CC2)[C@H]2CC[C@H](C)CC2)c1)N1C[C@@H](C(F)(F)F)NC1=O` (single isomer, unassigned) [Example 58], the IC50 was determined as 11 nM.

In turn, `COCC(c1ccnc(NC(=O)[C@@H](NC(=O)c2nonc2C2CC2)[C@H]2CC[C@H](C)CC2)c1)N1C[C@@H](C(F)(F)F)NC1=O` (single isomer, unassigned) [Example 59] displayed a concentration for half-maximal inhibition (IC50) of 61 nM. This IC50 lies about 5.5-fold higher than the previous one. Consider `COCC(c1ccnc(NC(=O)[C@@H](NC(=O)OC(C)(C)C)[C@H]2CC[C@H](C)CC2)c1)N1C[C@@H](C(F)(F)F)NC1=O` (single isomer, unassigned) [Example 65, tert-butyl ((S)-2-((4-((S or R)-2-methoxy-1-((S)-2-oxo-4-(trifluoromethyl)imidazolidin-1-yl)ethyl)pyridin-2-yl)amino)-1-((1r,4S)-4-methylcyclohexyl)-2-oxoethyl)carbamate], for which the 50% inhibitory concentration (IC50) came out at 522 nM. Compared with the last molecule, the IC50 is about 8.6-fold higher.

With `COCC(c1ccnc(NC(=O)[C@@H](NC(=O)OC(C)(C)C)[C@H]2CC[C@H](C)CC2)c1)N1C[C@@H](C(F)(F)F)NC1=O` (single isomer, unassigned) [Example 66, tert-butyl ((S)-2-((4-((R or S)-2-methoxy-1-((S)-2-oxo-4-(trifluoromethyl)imidazolidin-1-yl)ethyl)pyridin-2-yl)amino)-1-((1r,4S)-4-methylcyclohexyl)-2-oxoethyl)carbamate], the IC50 amounted to 74 nM. With `C[C@H]1CC[C@H]([C@H](NC(=O)c2ccnn2CCC(O)C(F)(F)F)C(=O)Nc2cc(CN3C[C@@H](C(F)(F)F)NC3=O)ccn2)CC1` (single isomer, unassigned) [Example 68], the IC50 was 136 nM.

The molecule `C[C@H]1CC[C@H]([C@H](NC(=O)c2ccnn2CCC(O)C(F)(F)F)C(=O)Nc2cc(CN3C[C@@H](C(F)(F)F)NC3=O)ccn2)CC1` (single isomer, unassigned) [Example 69] showed an IC50 of 126 nM. In turn, `CC(C)(C)OC(=O)N[C@H](C(=O)Nc1cc(C(NC(=O)CCC(F)(F)F)C2CC2)ccn1)[C@H]1CC[C@H](C)CC1` (single isomer, unassigned) [Example 73] displayed a 50% inhibitory concentration (IC50) of 1010 nM. `CC(C)(C)OC(=O)N[C@H](C(=O)Nc1cc(C(NC(=O)CCC(F)(F)F)C2CC2)ccn1)C1CCC(F)(F)CC1` (single isomer, unassigned) [Example 74] registered an IC50 of 2620 nM. This IC50 lies about 2.6-fold higher than the previous one. The result for `COCC(c1ccnc(NC(=O)[C@@H](NC(=O)c2nonc2C)[C@H]2CC[C@H](C)CC2)c1)N1C[C@@H](C(F)(F)F)NC1=O` (single isomer, unassigned) [Example 75] reads 134 nM; that for `COCC(c1ccnc(NC(=O)[C@@H](NC(=O)c2conc2C(C)C)[C@H]2CC[C@H](C)CC2)c1)N1C[C@@H](C(F)(F)F)NC1=O` (single isomer, unassigned) [Example 77], 60 nM. Consider `COCC(c1ccnc(NC(=O)[C@@H](NC(=O)c2ccnn2C(C)C)[C@H]2CC[C@H](C)CC2)c1)N1C[C@@H](C(F)(F)F)NC1=O` (single isomer, unassigned) [Example 78], for which the IC50 was determined as 69 nM.

As for `COCC(c1ccnc(NC(=O)[C@@H](NC(=O)c2ccnn2C)[C@H]2CC[C@H](C)CC2)c1)N1C[C@@H](C(F)(F)F)NC1=O` (single isomer, unassigned) [Example 85], the IC50 came to 12 nM. The result for `COCC(c1ccnc(NC(=O)[C@@H](NC(=O)c2nonc2C)[C@H]2CC[C@H](C)CC2)c1)N1C[C@@H](C(F)(F)F)NC1=O` (single isomer, unassigned) [Example 86] reads 6 nM; that for `COCC(c1ccnc(NC(=O)[C@@H](NC(=O)c2ccnn2C(C)C)[C@H]2CC[C@H](C)CC2)c1)N1C[C@@H](C(F)(F)F)NC1=O` (single isomer, unassigned) [Example 87], 13 nM; that for `CCc1nonc1C(=O)N[C@H](C(=O)Nc1cc(C(COC)N2C[C@@H](C(F)(F)F)NC2=O)ccn1)[C@H]1CC[C@H](C)CC1` (single isomer, unassigned) [Example 88], 4 nM. `COCC(c1ccnc(NC(=O)[C@@H](NC(=O)c2conc2C(C)C)[C@H]2CC[C@H](C)CC2)c1)N1C[C@@H](C(F)(F)F)NC1=O` (single isomer, unassigned) [Example 89] registered a concentration for half-maximal inhibition (IC50) of 11 nM. `COCC(c1ccnc(NC(=O)[C@@H](NC(=O)c2ncsc2C)[C@H]2CC[C@H](C)CC2)c1)N1C[C@@H](C(F)(F)F)NC1=O` (single isomer, unassigned) [Example 91] returned a concentration for half-maximal inhibition (IC50) of 119 nM. In turn, `COCC(c1ccnc(NC(=O)[C@@H](NC(=O)c2ncsc2C#N)[C@H]2CC[C@H](C)CC2)c1)N1C[C@@H](C(F)(F)F)NC1=O` (single isomer, unassigned) [Example 92] registered a concentration for half-maximal inhibition (IC50) of 539 nM. Compared with the last molecule, the IC50 is about 4.5-fold higher. The molecule `COCC(c1ccnc(NC(=O)[C@@H](NC(=O)c2nnnn2C)[C@H]2CC[C@H](C)CC2)c1)N1C[C@@H](C(F)(F)F)NC1=O` (single isomer, unassigned) [Example 93] had a 50% inhibitory concentration (IC50) of 341 nM. On to `COCC(c1ccnc(NC(=O)[C@@H](NC(=O)c2nc(Br)ccc2C)[C@H]2CC[C@H](C)CC2)c1)N1C[C@@H](C(F)(F)F)NC1=O` (single isomer, unassigned) [Example 94], for which the IC50 was determined as 4860 nM. `COCC(c1ccnc(NC(=O)[C@@H](NC(=O)c2nc(Cl)ncc2C)[C@H]2CC[C@H](C)CC2)c1)N1C[C@@H](C(F)(F)F)NC1=O` (single isomer, unassigned) [Example 95]: the half-maximal inhibitory concentration (IC50) worked out at 5490 nM.

For the molecule `COCC(c1ccnc(NC(=O)[C@@H](NC(=O)c2nccn2C)[C@H]2CC[C@H](C)CC2)c1)N1C[C@@H](C(F)(F)F)NC1=O` (single isomer, unassigned) [Example 112], the IC50 came to 381 nM. As for `COCC(c1ccnc(NC(=O)[C@@H](NC(=O)Cc2cc(C)[nH]n2)[C@H]2CC[C@H](C)CC2)c1)N1C[C@@H](C(F)(F)F)NC1=O` (single isomer, unassigned) [Example 114], the half-maximal inhibitory concentration (IC50) is 82 nM.

Take `COCC(c1ccnc(NC(=O)[C@@H](NC(=O)c2nccn2C(C)C)[C@H]2CC[C@H](C)CC2)c1)N1C[C@@H](C(F)(F)F)NC1=O` (single isomer, unassigned) [Example 115]: the IC50 stood at 77 nM. The result for `COCC(c1ccnc(NC(=O)[C@@H](NC(=O)c2nocc2C)[C@H]2CC[C@H](C)CC2)c1)N1C[C@@H](C(F)(F)F)NC1=O` (single isomer, unassigned) [Example 120] reads 18 nM; that for `COCC(c1ccnc(NC(=O)[C@@H](NC(=O)c2nocc2C2CC2)[C@H]2CC[C@H](C)CC2)c1)N1C[C@@H](C(F)(F)F)NC1=O` (single isomer, unassigned) [Example 121], 23 nM; that for `COCC(c1ccnc(NC(=O)[C@@H](NC(=O)c2ocnc2C)[C@H]2CC[C@H](C)CC2)c1)N1C[C@@H](C(F)(F)F)NC1=O` (single isomer, unassigned) [Example 122], 82 nM.

`COCC(c1ccnc(NC(=O)[C@@H](NC(=O)Cc2cc(C)no2)[C@H]2CC[C@H](C)CC2)c1)N1C[C@@H](C(F)(F)F)NC1=O` (single isomer, unassigned) [Example 123] had an IC50 of 65 nM.

`CCn1nccc1C(=O)N[C@H](C(=O)Nc1cc(C(COC)N2C[C@@H](C(F)(F)F)NC2=O)ccn1)[C@H]1CC[C@H](C)CC1` (single isomer, unassigned) [Example 124] came in with a half-maximal inhibitory concentration (IC50) of 20 nM. As for `CCc1nocc1C(=O)N[C@H](C(=O)Nc1cc(C(COC)N2C[C@@H](C(F)(F)F)NC2=O)ccn1)[C@H]1CC[C@H](C)CC1` (single isomer, unassigned) [Example 125], the IC50 was determined as 13 nM. `COCC(c1ccnc(NC(=O)[C@@H](NC(=O)c2conc2C2CC2)[C@H]2CC[C@H](C)CC2)c1)N1C[C@@H](C(F)(F)F)NC1=O` (single isomer, unassigned) [Example 126] came in with an IC50 of 21 nM. Compared with the last molecule, the IC50 is about 1.6-fold higher. For the molecule `COCC(NC(=O)CCC(F)(F)F)c1ccnc(NC(=O)[C@@H](NC(=O)OC(C)(C)C)C2CCC(F)(F)CC2)c1` (single isomer, unassigned) [Example 132], the IC50 came to 7700 nM. As to `COCC(NC(=O)CCC(F)(F)F)c1ccnc(NC(=O)[C@@H](NC(=O)c2nonc2C2CC2)C2CCC(F)(F)CC2)c1` (single isomer, unassigned) [Example 133], the half-maximal inhibitory concentration (IC50) worked out at 73 nM.

One may read the IC50 as the midpoint of a concentration-inhibition curve.
